Measurements published in patent publication US20260076937A1, “COMPOSITION FOR PREVENTING OR TREATING AUTOIMMUNE DISEASES COMPRISING A BCAT1 INHIBITOR” (Seoul National University R&DB Foundation, priority 2024, published 2026).

Columns and labels:
HIF-1α [1] = test: HIF-1α expression in TCR-stimulated mouse iLN cells; format: cell-based; conditions: Bi2 10 μM, 24 hours
Experimental: Blocking BCAT1 with Bi2 attenuates Th17 differentiation in mice. In FIG. 13A mRNA expression of slc7a5 and bcat1 in mouse inguinal LN (iLN) cells was analyzed by RT-qPCR at 24 hours after TCR stimulation with anti-CD3/CD28 antibody (n=5). In FIG. 13B protein expression of BCAT1 in mouse inguinal LN cells was analyzed at 24 hours after stimulation of TCR with anti-CD3/CD28 antibody (n=5). In FIGS. 13C to 13D, mouse CD4^+ naive T cells derived from iLN were differentiated under […] or Th1 polarization conditions for 5 days in the presence of Bi2 (10 μM). The amounts of IFN-γ (c) and IL-17A (d) in the culture supernatants of Th1 and Th17 cells (n=5) are shown. In FIG. 13E, the cells of mouse iLN were stimulated with anti CD3/CD28 antibody in the presence of Bi2 (10 μM) for 24 hours. Cell lysates were immunoblotted for HIF-1α (n=3 independent experiments). Cells treated with COCl2 served as a positive control for HIF-1α. […] FIG. 13F is a representative histogram plot of intracellular HIF-1α in cells of mouse iLN. Cells were stimulated with anti CD3/CD28 antibody in the presence of Bi2 (10 μM) for 24 hours. […] The significance was indicated as *=p<0.05, **=p<0.01, ***=p<0.001, according to Mann-Whitney U test (a, c, d, f) or the two-tailed non-pair t test (b, e)).

mTORC1 = test: Phospho-p70-S6K immunoblot (mTORC1 activity) in CD4+ memory T cells; format: cell-based, human; conditions: about 1-2 hours after stimulation
Experimental: (§1) Cells were cultured in radioimmunoprecipitation assay (RIPA) buffer (150 mM NaCl, 10 mM Na2HPO4, pH 7.2, 1% Nonidet P-40, 0.5% deoxycholate) containing phenylmethylsulfonyl fluoride (PMSF; Millipore Sigma, Burlington, MA), EDTA, protease and phosphatase inhibitor cocktail (Thermo Fisher Scientific) to extract total protein. Proteins were separated on 8-10% SDS-polyacrylamide gels and blotted onto polyvinylidene difluoride (PVDF) membranes (Bio-Rad, Hercules, CA) followed by 5% BSA in Tris buffered saline (TBS) with 0.1% Tween 20 and blocked for 1 hour. Membranes were cultured overnight with anti-human SLC7A5, anti-BCAT, anti-phospho-p70S6K, anti-p70S6K, anti-HIF-1α (all provided by Cell Signaling Technology, Danvers, MA) primary antibodies at 4° C., followed by culture with HRP-conjugated secondary antibodies for 1 hour at room temperature. Membranes were developed using SuperSignal West Femto Maximum Sensitivity Substrate or SuperSignal West Pico PLUS Chemiluminescent Substrate system (Thermo Fisher Scientific).

[2] = system: TCR-stimulated human CD4+ naive T cells; test: Cytokine ELISA of culture supernatants, CD4+ naive T cells; format: cell-based; conditions: TCR stimulation 3 days
[3] = system: human CD4+ naive and memory T cells; test: CFSE dilution proliferation assay; format: cell-based; conditions: anti-CD3/CD28 microbeads; Bi2 10 μM, JPH203 10 μM, LβhL 400 mg/L
Experimental: To analyze T cell proliferative capacity, purified isolated human CD4+ T cells were labeled with 1 μM carboxyfluorescein succinimidyl ester (CFSE; Invitrogen, Waltham, MA, USA) and then stimulated with anti-CD3/CD28 antibody coated microbeads for 4 days at 37° C. Cells were stained with 7AAD (BD Biosciences) for 10 minutes to distinguish dead cells and the extent of CFSE dilution in 7AAD-cells was measured by BD LSRFortessa to analyze proliferative capacity. Antibodies listed in Table 2 and previously known BD LSRFortessa cell analyzers were used.

human CD4+ naive T cells = test: Th17 polarization of human CD4+ naive T cells (RT-qPCR, ELISA); format: cell-based; conditions: Th17-polarized conditions, 7 days, Bi2 10 μM
Experimental: BCAT1 regulates HIF-1α through mTORC1 activation in human CD4^+ T cells. FIG. 11A relates to ubiquitin-proteasome degradation of HIF1a and inhibitors for each step. In FIG. 11B, CD4+ memory T cells were pretreated with Bi2 (10 μM), CoCl2 (100 μM), VH298 (100 μM) or MG132 (5 μM) for 1 hour and stimulated with anti-CD3/CD28 coated microbeads for 8 hours. Cell lysates were immunoblotted against HIF-1α (n=3 independent experiments). In FIG. 11C, CD4+ memory T cells were stimulated for 24 hours and then treated with CHX (0.2 μg/ml) for the specified time before being obtained. Cell lysates were immunoblotted against HIF-1α (n=3 independent experiments). In FIG. 11D, CD4^+ memory T cells were stimulated for a specified time with or without Bi2 (10 μM). […] Cell viability was analyzed by 7-AAD staining using a flow cytometer (n=3). […] The mRNA levels of genes involved in leucine metabolism were quantified using RT-qPCR (n=3). […] The mRNA expression of the signature genes of Th17 (i-j) or Th1 (k-l) and cytokines was measured by RT-qPCR and ELISA, respectively (n=5-7). […]
Total RNA was prepared using TRIzol reagent (Life Technologies, Grand Island, NY), followed by cDNA synthesis (Promega, Madison, WI), followed by real-time quantitative RT-PCR with a CFX system (Bio-Rad, Hercules, CA) using SensiFAST SYBR® Lo-ROX (Bioline, London. UK). […]

HIF-1α [4] = test: HIF-1α immunoblot in TCR-stimulated CD4+ memory T cells; format: cell-based, human; conditions: TCR-stimulated CD4+ memory T cells; Bi2 10 μM, CoCl2 100 μM, VH298 100 μM, MG132 5 μM
Experimental: as §1

What does the source list for `O=C(NNS(=O)(=O)c1ccccc1C(F)(F)F)c1cc2cc(Cl)ccc2o1` [Bi2, BCATc inhibitor 2]?
TCR-induced HIF-1α expression in mouse LN T cells (HIF-1α [1]): reduced; S6K phosphorylation (mTORC1): inhibitory effect; IL-2 production by CD4+ naive T cells [2]: not affected; proliferation (CFSE dilution) [3]: no effect on proliferation; IL-17A secretion (human CD4+ naive T cells): decreased; mRNA levels of RORC and IL17A (human CD4+ naive T cells): significantly reduced; HIF-1α protein expression (HIF-1α [4]): significantly inhibited
